{
  "source": "patent US20040038888A1",
  "about": "(priority 2002, published 2004)",
  "key": {"[1]": {"tested_on": "differentiating neural stem cells", "assay": "Intracellular ATP assay, differentiating adult mouse NSC, adherent culture", "type": "cell-based", "conditions": "varying concentrations, adherent conditions, 3 days, relative to control, dose-dependent", "experimental": "Adult mouse NSC were cultivated from the anterior lateral wall of the lateral ventricle of 5-6 week old mice as described in Example 2 (Method A).\nMouse neurospheres, cultured as described above, from passage 2, were seeded in DMEM/F12 supplemented with B27 and 1% Fetal Calf Serum into a 96-well plate coated with poly-D-lysine as single cells (30000 cells/well) and cultured over-night. The following day the medium was replaced with Neurosphere medium and PACAP added to the concentrations indicated. After 3 days incubation, intracellular ATP was measured using the ATP-SL kit from BioThema, Sweden, according to the manufacturer's instructions."}, "[2]": {"tested_on": "differentiating neural stem cells", "assay": "Thymidine incorporation, differentiating adult mouse NSC, adherent culture", "type": "cell-based", "conditions": "adherent conditions, 3 days, relative to controls", "experimental": "To determine thymidine incorporation into DNA, mouse neurospheres, cultured as described above, from passage 2, were seeded in DMEM/F12 supplemented with B27 and 1% Fetal Calf Serum into a 96-well plate coated with poly-D-lysine as single cells (30000 cells/well) and cultured over-night. The following day the medium was replaced with Neurosphere medium and PACAP added to the concentrations indicated for a further 3 days. 3H-thymidine, 10 uCi/ml, was present the last 24 hours. Cells were harvested on to a filter paper and radioactivity was measured. 3H-thymidine (6,7 Ci/mmol) was from PerkinElmer."}, "CREB phosphorylation [3]": {"tested_on": "CREB phosphorylation", "assay": "Western blot of phosphorylated CREB, undifferentiated aHNSC", "type": "cell-based, human", "conditions": "10 nM PACAP", "experimental": "A biopsy from the anterior lateral wall of the lateral ventricle was taken from an adult human patient and enzymatically dissociated in PDD (Papain 2.5 U/ml; Dispase 1 U/ml; Dnase 1 250 U/ml) in DMEM containing 4.5 mg/ml glucose and 37° C. for 20 min. The cells were gently triturated and mixed with three volumes of Human Neural Stem Cell Plating Medium (HNSCPM) (DMEM/F12; 10% fetal bovine serum (FBS)). The cells were pelleted at 250×g for 5 min. The supernatant was subsequently removed and the cells resuspended in HNSCPM, plated out on fibronectin coated culture dishes and incubated at 37° C. in 5% CO2. The following day the expansion of the culture was initiated by change of media to aHNSC culture media (DMEM/F12; BIT 9500; EGF 20 ng/ml; FGF2 20 ng/ml). The aHNSC were split using trypsin and EDTA under standard conditions. FBS was subsequently added to inhibit the reaction and the cells collected by centrifugation at 250×g for 5 min. The aHNSC were replated in aHNSC culture media.\nAdult mouse NSC and aHNSC were prepared and cultured as stated in Example 2 (Method A) and Example 1 (Method A). Cultures were exposed to either 10 nM PACAP or EGF (1 nM) and FGF (1 nM) for the times indicated. […] DNA content was detemined by the use of a Pico Green-kit for ds DNA quantitation of cell extracts. […] Phosphorylated CREB protein bands (43 kD) were detected using the ECL-kit (Amersham)."}, "CREB phosphorylation [4]": {"tested_on": "CREB phosphorylation", "assay": "Western blot of phosphorylated CREB, differentiating adult mouse NSC, adherent", "type": "cell-based", "conditions": "10 nM PACAP", "experimental": "Adult mouse NSC and aHNSC were prepared and cultured as stated in Example 5 (Method A & B) and Example 2 (Method A), respectively. Cultures were exposed to 10 nM PACAP for the times indicated. After treatment, the cells were lysed in lysis buffer, as shown in Patrone et al. (Patrone, Andersson et al. 1999). DNA content was detemined by the use of a Pico Green-kit for ds DNA quantitation of cell extracts. Total protein measurements were performed with Nano Orange-kit. Equal amounts of protein were run on a gradient gel 4-12% Bis-Tris gel (NuPage/Mops buffer) and transferred to a nitrocellulose membrane. Western blot was performed and phosphorylated CREB was labelled using a rabbit anti phospho-CREB (1:1000, Upstate biotechnology), a secondary anti rabbit HRP antibodies (1:10.000). Phosphorylated CREB protein bands (43 kD) were detected using the ECL-kit (Amersham)."}, "AP-1": {"tested_on": "AP-1", "assay": "AP-1 transcription factor reporter assay", "type": "cell-based, mouse", "conditions": "PACAP 100 nM, 20 hours after induction, compared to non-induced cells", "experimental": "Vectors: Vector DNA containing reporter elements for AP-1 and empty cloning vector (pTAL), with a luciferace reporter were purchased from Promega. The vectors were propagated in E. coli strain JM-109 (Promega) and purified with Qiagens maxi-prep Kit (Qiagen). The concentration was diluted to approximately 1 mg/ml per vector.\nTransfection: Transient transfection was performed by seeding cells as above in suspension neurosphere cell culture and adherent neurosphere cell culture (1 to 3 day incubation) using 30,000 single cells/well. Each well was transiently transfected with […] plasmid, 0.6 μg Nupherin-neuron (Biomol) and 0,6 μl of Fugene-6 (Roche). Plasmid and Nupherin was mixed and diluted in DMEM/F12 to a total volume of 50 μl/well, and were incubated for 15 minutes prior to mixing with Fugene-6 that were diluted in DMEM/F12 to a total volume of 50 μl/well. The mix of plasmid and Nupherin and Fugene-6 were incubated for 20 min. The volume was adjusted to 100 μl prior to addition of 100 μl/well of transfection reagent.\nAssay: The following day the transiently transfected cells were applied with PACAP (Bachem) to final concentration of 100 nM/well, in the presence or absence of MEK inhibitor, […] (Sigma-Aldrich). Luciferace activity was analysed with steady glow (Promega) according to the instructions of the manufacturer. Cells were analysed 20 hours after induction with PACAP."}},
  "data": [
    {"substance": "pituitary adenylate cyclase-activating polypeptide [PACAP]", "values": [
      {"measurement": "intracellular ATP levels, and hence cell number", "setting": "[1]", "value": "statistically significant increase in intracellular ATP levels"},
      {"measurement": "incorporation of tritiated thymidine", "setting": "[2]", "value": "No significant difference"},
      {"measurement": "CREB phosphorylation", "setting": "CREB phosphorylation [3]; 15 min", "value": "strong upregulation"},
      {"measurement": "CREB phosphorylation", "setting": "CREB phosphorylation [3]; 240 min", "value": "slightly above basal levels"},
      {"measurement": "CREB phosphorylation", "setting": "CREB phosphorylation [4]; 15 min exposure", "value": "upregulated"},
      {"measurement": "CREB phosphorylation", "setting": "CREB phosphorylation [4]; 240 min", "value": "slightly above basal levels"},
      {"measurement": "AP-1 expression (luciferace activity)", "setting": "AP-1", "value": "significantly induced"}
    ]}
  ]
}
